Source: patent US20170057955A1, “Pyridopyrimidinone Compounds for Modulating the Catalytic Activity of Histone Lysine Demethylases (KDMs)” (Dong-A Socio Holdings Co., Ltd., priority 2015, published 2017)

Target: T1, Recombinant human JARID1B/KDM5B (Homo sapiens, UniProt Q9UGL1)
T1 construct: purchased Active Motif 31432; host or cells: Sf9 insect cells
Assay: LANCE Ultra TR-FRET JARID1B (KDM5B) demethylase inhibition assay
Format: biochemical
Conditions: 0.1 uM of test-compounds, FLAG-JARID1B, 500 nM biotinylated H3K4me3 peptide substrate, 30 min at room temperature
Procedure, shortened: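 FLAG-tagged JARID1B from Sf9 cells, pre-incubated 5 min with 0.1 uM compound (1% DMSO), then 500 nM biotinylated H3K4me3 peptide, 500 uM 2-OG, 25 uM Fe(II), 2 mM ascorbate in pH 7.5 Hepes buffer. After 30 min at room temperature, H3K4me2/1 product detected by TR-FRET (665/590 nm ratio).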

T1 sequence (Q9UGL1 whole entry): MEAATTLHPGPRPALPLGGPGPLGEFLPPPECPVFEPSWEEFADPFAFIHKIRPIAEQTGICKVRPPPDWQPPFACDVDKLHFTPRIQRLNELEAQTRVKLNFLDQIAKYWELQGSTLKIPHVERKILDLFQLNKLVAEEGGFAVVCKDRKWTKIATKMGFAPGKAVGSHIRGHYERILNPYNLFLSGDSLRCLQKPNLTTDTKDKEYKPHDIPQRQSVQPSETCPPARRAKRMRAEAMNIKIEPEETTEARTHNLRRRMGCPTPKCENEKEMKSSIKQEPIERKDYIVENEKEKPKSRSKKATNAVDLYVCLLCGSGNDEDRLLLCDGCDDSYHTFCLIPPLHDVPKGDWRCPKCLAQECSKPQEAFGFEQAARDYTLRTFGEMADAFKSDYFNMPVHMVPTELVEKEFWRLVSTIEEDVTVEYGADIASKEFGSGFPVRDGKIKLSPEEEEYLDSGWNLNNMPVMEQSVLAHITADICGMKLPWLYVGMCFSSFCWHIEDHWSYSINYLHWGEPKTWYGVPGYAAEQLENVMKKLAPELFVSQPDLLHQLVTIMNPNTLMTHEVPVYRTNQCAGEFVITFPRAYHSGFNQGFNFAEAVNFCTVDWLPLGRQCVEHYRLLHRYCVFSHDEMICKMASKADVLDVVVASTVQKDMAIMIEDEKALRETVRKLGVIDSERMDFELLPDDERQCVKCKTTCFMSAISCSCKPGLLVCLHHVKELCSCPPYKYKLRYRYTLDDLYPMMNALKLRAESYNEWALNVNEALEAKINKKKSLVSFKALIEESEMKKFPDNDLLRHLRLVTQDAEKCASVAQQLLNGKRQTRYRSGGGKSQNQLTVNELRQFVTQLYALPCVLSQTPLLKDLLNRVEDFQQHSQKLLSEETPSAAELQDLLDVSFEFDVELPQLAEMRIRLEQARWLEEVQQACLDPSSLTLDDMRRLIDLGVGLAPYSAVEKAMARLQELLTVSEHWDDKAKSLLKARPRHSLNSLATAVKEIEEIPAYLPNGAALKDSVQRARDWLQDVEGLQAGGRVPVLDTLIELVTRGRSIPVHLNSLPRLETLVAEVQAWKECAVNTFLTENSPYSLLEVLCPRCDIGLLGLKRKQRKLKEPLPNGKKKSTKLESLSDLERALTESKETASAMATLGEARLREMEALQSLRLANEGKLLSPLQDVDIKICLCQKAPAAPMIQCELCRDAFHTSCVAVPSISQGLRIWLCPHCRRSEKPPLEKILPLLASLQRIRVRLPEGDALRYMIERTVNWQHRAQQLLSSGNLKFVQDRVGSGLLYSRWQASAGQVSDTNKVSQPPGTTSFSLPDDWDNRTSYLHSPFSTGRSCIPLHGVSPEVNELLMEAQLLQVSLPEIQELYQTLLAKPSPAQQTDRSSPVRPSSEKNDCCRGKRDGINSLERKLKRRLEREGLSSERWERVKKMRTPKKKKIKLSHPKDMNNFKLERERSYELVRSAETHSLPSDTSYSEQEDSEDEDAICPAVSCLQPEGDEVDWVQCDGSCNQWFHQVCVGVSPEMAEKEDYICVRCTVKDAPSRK

Row | SMILES | inhibition at 0.1 µM [%]
1 | O=c1[nH]c(COc2ccc(F)c(Cl)c2)nc2c(-c3cscn3)nccc12 [Compound 106, 2-((3-chloro-4-fluorophenoxy)methyl)-8-(thiazol-4-yl)pyrido[3,4-d]pyrimidin-4(3H)-one] | 20 to 50
2 | CN(C)CCCNc1nc(-c2nccc3c(=O)[nH]c(COc4ccc(F)c(Cl)c4)nc23)cs1 [Compound 91, 2-((3-chloro-4-fluorophenoxy)methyl)-8-(2-((3-(dimethylamino)propyl)amino)thiazol-4-yl)pyrido[3,4-d]pyrimidin-4(3H)-one] | ≥ 50
3 | O=c1[nH]c(-c2cc3ccccc3o2)nc2c(-c3csc(NCCO)n3)nccc12 [Compound 167, 2-(benzofuran-2-yl)-8-(2-((2-hydroxyethyl)amino)thiazol-4-yl)pyrido[3,4-d]pyrimidin-4(3H)-one] | 20 to 50
4 | Nc1nn(-c2nccc3c(=O)[nH]cnc23)cc1-c1ccc(CCCO)cc1 [Compound 19, 8-(3-amino-4-(4-(3-hydroxypropyl)phenyl)-1H-pyrazol-1-yl)pyrido[3,4-d]pyrimidin-4(3H)-one] | 20 to 50
5 | O=c1[nH]c(COc2ccc(F)c(Cl)c2)nc2c(-c3csc(NCCN4CCOCC4)n3)nccc12 [Compound 82, 2-((3-chloro-4-fluorophenoxy)methyl)-8-(2-((2-morpholinoethyl)amino)thiazol-4-yl)pyrido[3,4-d]pyrimidin-4(3H)-one] | ≥ 50
6 | CCC(O)CNc1nc(-c2nccc3c(=O)[nH]c(COCc4ccccc4)nc23)cs1 (stereo not shown) [Compound 143, 2-((benzyloxy)methyl)-8-(2-((2-hydroxybutyl)amino)thiazol-4-yl)pyrido[3,4-d]pyrimidin-4(3H)-one] | 20 to 50
7 | CN1CCCC1CCNc1nc(-c2nccc3c(=O)[nH]c(COc4ccc(F)c(Cl)c4)nc23)cs1 (stereo not shown) [Compound 92, 2-((3-chloro-4-fluorophenoxy)methyl)-8-(2-((2-(1-methylpyrrolidin-2-yl)ethyl)amino)thiazol-4-yl)pyrido[3,4-d]pyrimidin-4(3H)-one] | ≥ 50
8 | O=c1[nH]c(COc2cccc(Cl)c2)nc2c(-c3csc(NCCO)n3)nccc12 [Compound 133, 2-((3-chlorophenoxy)methyl)-8-(2-((2-hydroxyethyl)amino)thiazol-4-yl)pyrido[3,4-d]pyrimidin-4(3H)-one] | 20 to 50
9 | Nc1nn(-c2nccc3c(=O)[nH]cnc23)cc1-c1cccc(N2CCNCC2)c1 [Compound 20, 8-(3-amino-4-(3-(piperazin-1-yl)phenyl)-1H-pyrazol-1-yl)pyrido[3,4-d]pyrimidin-4(3H)-one] | ≥ 50
10 | O=c1[nH]c(COc2ccc(Oc3ccccc3)cc2)nc2c(-c3csc(NCCO)n3)nccc12 [Compound 157, 8-(2-((2-hydroxyethyl)amino)thiazol-4-yl)-2-((4-phenoxyphenoxy)methyl) pyrido[3,4-d]pyrimidin-4(3H)-one] | < 20
11 | O=c1[nH]c(COc2ccc(Cl)c(Cl)c2)nc2c(-c3csc(NCCO)n3)nccc12 [Compound 136, 2-((3,4-dichlorophenoxy)methyl)-8-(2-((2-hydroxyethyl)amino)thiazol-4-yl)pyrido[3,4-d]pyrimidin-4(3H)-one] | ≥ 50
12 | Cn1cnc(-c2nccc3c(=O)[nH]c(COc4ccc(F)c(Cl)c4)nc23)c1 [Compound 77, 2-((3-chloro-4-fluorophenoxy)methyl)-8-(1-methyl-1H-imidazol-4-yl)pyrido[3,4-d]pyrimidin-4(3H)-one] | 20 to 50
13 | O=c1[nH]cnc2c(-n3cc(-c4ccccc4CO)cn3)nccc12 [Compound 9, 8-(4-(2-(hydroxymethyl)phenyl)-1H-pyrazol-1-yl)pyrido[3,4-d]pyrimidin-4(3H)-one] | < 20
14 | O=c1[nH]c(COc2ccc(F)c(Cl)c2)nc2c(-c3csc(NCC4CCN(CCO)CC4)n3)nccc12 [Compound 100, 2-((3-chloro-4-fluorophenoxy)methyl)-8-(2-(((1-(2-hydroxyethyl)piperidin-4-yl)methyl)amino)thiazol-4-yl)pyrido[3,4-d]pyrimidin-4(3H)-one] | 20 to 50
15 | O=c1[nH]c(COc2ccc(F)c(Cl)c2)nc2c(-c3cc[nH]n3)nccc12 [Compound 76, 2-((3-chloro-4-fluorophenoxy)methyl)-8-(1H-pyrazol-3-yl)pyrido[3,4-d]pyrimidin-4(3H)-one] | < 20
16 | O=c1[nH]cnc2c(-n3cc(-c4cccc(CCCO)c4)cn3)nccc12 [Compound 7, 8-(4-(3-(3-hydroxypropyl)phenyl)-1H-pyrazol-1-yl)pyrido[3,4-d]pyrimidin-4(3H)-one] | < 20
17 | O=c1[nH]cnc2c(-n3cc(-c4cnn(Cc5ccccc5)c4)cn3)nccc12 [Compound 13, 8-(1′-benzyl-1H,1′H-[4,4′-bipyrazol]-1-yl)pyrido[3,4-d]pyrimidin-4(3H)-one] | < 20
18 | CCC[C@H](CO)Nc1nc(-c2nccc3c(=O)[nH]c(COc4ccc(F)c(Cl)c4)nc23)cs1 [Compound 121, (R)-2-((3-chloro-4-fluorophenoxy)methyl)-8-(2-((1-hydroxypentan-2-yl)amino)thiazol-4-yl)pyrido[3,4-d]pyrimidin-4(3H)-one] | 20 to 50
19 | O=c1[nH]c(COc2ccc(F)c(Cl)c2)nc2c(-c3csc(NCCCO)n3)nccc12 [Compound 90, 2-((3-chloro-4-fluorophenoxy)methyl)-8-(2-((3-hydroxypropyl)amino)thiazol-4-yl)pyrido[3,4-d]pyrimidin-4(3H)-one] | ≥ 50
20 | Nc1nn(-c2nccc3c(=O)[nH]cnc23)cc1-c1cccnc1 [Compound 16, 8-(3-amino-4-(pyridin-3-yl)-1H-pyrazol-1-yl)pyrido[3,4-d]pyrimidin-4(3H)-one] | < 20
21 | CC(C)N1CCC(CNc2nc(-c3nccc4c(=O)[nH]c(COc5ccc(F)c(Cl)c5)nc34)cs2)CC1 [Compound 97, 2-((3-chloro-4-fluorophenoxy)methyl)-8-(2-(((1-isopropylpiperidin-4-yl)methyl)amino)thiazol-4-yl)pyrido[3,4-d]pyrimidin-4(3H)-one] | 20 to 50
22 | O=c1[nH]c(COc2ccc(F)cc2)nc2c(-c3csc(NC4CCN(Cc5ccccc5)CC4)n3)nccc12 [Compound 128, 8-(2-((1-benzylpiperidin-4-yl)amino)thiazol-4-yl)-2-((4-fluorophenoxy)methyl) pyrido[3,4-d]pyrimidin-4(3H)-one] | < 20
23 | Cn1cc(-c2cnn(-c3nccc4c(=O)[nH]cnc34)c2)cn1 [Compound 11, 8-(1′-methyl-1H,1′H-[4,4′-bipyrazol]-1-yl)pyrido[3,4-d]pyrimidin-4(3H)-one] | < 20
24 | CN1CCN(CCNc2nc(-c3nccc4c(=O)[nH]c(COc5ccc(F)c(Cl)c5)nc34)cs2)CC1 [Compound 89, 2-((3-chloro-4-fluorophenoxy)methyl)-8-(2-((2-(4-methylpiperazin-1-yl)ethyl)amino)thiazol-4-yl)pyrido[3,4-d]pyrimidin-4(3H)-one] | ≥ 50
25 | Cc1nc(-c2nccc3c(=O)[nH]c(COc4ccc(F)c(Cl)c4)nc23)cs1 [Compound 103, 2-((3-chloro-4-fluorophenoxy)methyl)-8-(2-methylthiazol-4-yl)pyrido[3,4-d]pyrimidin-4(3H)-one] | < 20
